{"source": "patent US20080260896A1", "about": "(priority 2007, published 2008)", "key": {"[1]": {"assay": "Crude glycerin as pellet binder: pellet mill current usage and pellet durability index (PDI)", "format": "physicochemical", "text": "In this embodiment, the crude glycerin [FROM SHEET WHEN GET FROM NEIL] […] Two corn/soy diets, one with low fat and one with high fat, and two high fiber diets, one with low fat and one with high fat, were formulated to provide the four treatment groups. […] Table 1 references diet formulations tested. The “HFP” referred to in Table 1 refers to a High Fat Product available from Archer Daniels Midland Company, Decatur, Ill. […] [table]"}, "[2]": {"details": "lambs", "text": "Lambs received a common receiving ration for one week prior to allotment. Lambs were blocked by weight (4 blocks) and fed in individual crates for […]. […] Initial and final weights were collected on consecutive days and an interim weight was taken on day 14. Periods were: 1) days 1 to 14, 2) days 15 to 29, and 3) cumulative (days 1 to 29)."}, "[3]": {"assay": "Methanol concentration of stored crude glycerin", "format": "physicochemical", "details": "stored in sealed totes approximately 5 months, analyzed in duplicate; certificate of analysis 800 ppm", "from_the_text": "A subset of ten cattle (5 from each treatment) were used for baseline and withdrawal sampling of rumen fluid and blood plasma for residual methanol quantification. […] Withdrawal samples were collected from the same subset of animals."}, "[4]": {"assay": "Crude glycerin in finishing cattle diets: animal performance (weight, ADG, DMI, gain/feed)", "format": "in vivo, Angus-cross steers", "details": "10% DM glycerin; for Weight: Day 28", "method": "All cattle were adapted on a common 4-step transition prior to initiation of the evaluation. Cattle were blocked by weight (4 blocks) with four pens per treatment (9-10 head/pen). […] Individual weights were collected at 28-day intervals throughout with steers terminated on three harvest dates (days on feed 116 to 153 days) based on weight and condition. Six monthly periods and cumulative (d 1-116 and 1-153) periods were analyzed."}, "[5]": {"details": "Day 1-28, DDGS:Soy Hulls 10:0 diet (Treatment 2)"}, "[6]": {"details": "Day 1-28, DDGS:Soy Hulls 30:15 diet (Treatment 4)"}, "[7]": {"details": "Day 1-28, main effect over both diets"}, "[8]": {"details": "Day 1-116, DDGS:Soy Hulls 10:0 diet (Treatment 2)"}, "[9]": {"details": "Day 1-116, DDGS:Soy Hulls 30:15 diet (Treatment 4)"}, "[10]": {"details": "Day 1-116, main effect over both diets"}, "[11]": {"details": "Day 1-153, DDGS:Soy Hulls 10:0 diet (Treatment 2)"}, "[12]": {"details": "Day 1-153, DDGS:Soy Hulls 30:15 diet (Treatment 4)"}, "[13]": {"details": "Day 1-153, main effect over both diets"}, "[14]": {"details": "Day 29-56, DDGS:Soy Hulls 10:0 diet (Treatment 2)"}, "[15]": {"details": "Day 29-56, DDGS:Soy Hulls 30:15 diet (Treatment 4)"}, "[16]": {"details": "Day 29-56, main effect over both diets"}}, "note": "Like-named read-outs stand apart in the source and are kept apart here. Marks after values point to notes of the source that are not given here.", "data": [{"smiles": "OCC(O)CO", "note": "[crude glycerin, glycerin]", "values": [{"measurement": "PDI", "setting": "[1]; Corn/Soy High Fat diet, crude glycerin 2.5%", "result": 54}, {"measurement": "PDI", "setting": "[1]; Corn/Soy High Fat diet, crude glycerin 5.0%", "result": 66}, {"measurement": "PDI", "setting": "[1]; Corn/Soy Low Fat diet, crude glycerin 2.5%", "result": 89}, {"measurement": "PDI", "setting": "[1]; Corn/Soy Low Fat diet, crude glycerin 5.0%", "result": 93}, {"measurement": "PDI", "setting": "[1]; High Fiber High Fat diet, crude glycerin 2.5%", "result": 89}, {"measurement": "PDI", "setting": "[1]; High Fiber High Fat diet, crude glycerin 5.0%", "result": 91}, {"measurement": "PDI", "setting": "[1]; High Fiber Low Fat diet, crude glycerin 2.5%", "result": 98}, {"measurement": "PDI", "setting": "[1]; High Fiber Low Fat diet, crude glycerin 5.0%", "result": 98}, {"measurement": "Final weight", "setting": "[2]; 0 to 20% crude glycerin", "result": "not significantly different"}, {"measurement": "morbidity and mortality, treatment effects", "setting": "[2]; 0 to 20% crude glycerin", "result": "treatment effects were not different"}, {"measurement": "cumulative DMI", "setting": "[2]; 5% crude glycerin", "result": 1.26, "unit": "kg/day"}, {"measurement": "cumulative DMI", "setting": "[2]; 10% crude glycerin", "result": 1.21, "unit": "kg/day"}, {"measurement": "cumulative DMI", "setting": "[2]; 15% crude glycerin", "result": 1.27, "unit": "kg/day"}, {"measurement": "cumulative DMI", "setting": "[2]; 20% crude glycerin", "result": 1.20, "unit": "kg/day"}, {"measurement": "Cumulative ADG", "setting": "[2]; days 1 to 29, 5% crude glycerin", "result": 0.40, "unit": "kg/day"}, {"measurement": "Cumulative ADG", "setting": "[2]; days 1 to 29, 10% crude glycerin", "result": 0.36, "unit": "kg/day"}, {"measurement": "Cumulative ADG", "setting": "[2]; days 1 to 29, 15% crude glycerin", "result": 0.39, "unit": "kg/day"}, {"measurement": "Cumulative ADG", "setting": "[2]; days 1 to 29, 20% crude glycerin", "result": 0.36, "unit": "kg/day"}, {"measurement": "palatability", "setting": "[2]; levels of up to 20% dry matter (DM) inclusion", "result": "not a concern"}, {"measurement": "methanol concentration of crude glycerin samples", "setting": "[3]", "result": 756, "unit": "ppm"}, {"measurement": "Average Daily Gain", "setting": "[4]; [5]", "result": "1.46^a kg/hd/d"}, {"measurement": "Dry Matter Intake", "setting": "[4]; [5]", "result": "7.97^c kg/hd/d"}, {"measurement": "Gain/Feed, ×100", "setting": "[4]; [5]", "result": "18.27^a"}, {"measurement": "Average Daily Gain", "setting": "[4]; [6]", "result": "1.31^ab kg/hd/d"}, {"measurement": "Dry Matter Intake", "setting": "[4]; [6]", "result": "8.34^bc kg/hd/d"}, {"measurement": "Gain/Feed, ×100", "setting": "[4]; [6]", "result": "15.64^b"}, {"measurement": "Average Daily Gain", "setting": "[4]; [7]", "result": 1.38, "unit": "kg/hd/d"}, {"measurement": "Dry Matter Intake", "setting": "[4]; [7]", "result": 8.16, "unit": "kg/hd/d"}, {"measurement": "Gain/Feed, ×100", "setting": "[4]; [7]", "result": 16.96}, {"measurement": "Average Daily Gain", "setting": "[4]; [8]", "result": 1.30, "unit": "kg/hd/d"}, {"measurement": "Dry Matter Intake", "setting": "[4]; [8]", "result": "8.31^c kg/hd/d"}, {"measurement": "Gain/Feed, ×100", "setting": "[4]; [8]", "result": "15.66^a"}, {"measurement": "Average Daily Gain", "setting": "[4]; [9]", "result": 1.27, "unit": "kg/hd/d"}, {"measurement": "Dry Matter Intake", "setting": "[4]; [9]", "result": "8.95^b kg/hd/d"}, {"measurement": "Gain/Feed, ×100", "setting": "[4]; [9]", "result": "14.28^b"}, {"measurement": "Average Daily Gain", "setting": "[4]; [10]", "result": 1.29, "unit": "kg/hd/d"}, {"measurement": "Dry Matter Intake", "setting": "[4]; [10]", "result": 8.63, "unit": "kg/hd/d"}, {"measurement": "Gain/Feed, ×100", "setting": "[4]; [10]", "result": 14.97}, {"measurement": "Average Daily Gain", "setting": "[4]; [11]", "result": "1.27^a kg/hd/d"}, {"measurement": "Dry Matter Intake", "setting": "[4]; [11]", "result": "8.37^c kg/hd/d"}, {"measurement": "Gain/Feed, ×100", "setting": "[4]; [11]", "result": "15.21^a"}, {"measurement": "Average Daily Gain", "setting": "[4]; [12]", "result": "1.21^ab kg/hd/d"}, {"measurement": "Dry Matter Intake", "setting": "[4]; [12]", "result": "8.99^b kg/hd/d"}, {"measurement": "Gain/Feed, ×100", "setting": "[4]; [12]", "result": "13.43^b"}, {"measurement": "Average Daily Gain", "setting": "[4]; [13]", "result": 1.24, "unit": "kg/hd/d"}, {"measurement": "Dry Matter Intake", "setting": "[4]; [13]", "result": 8.68, "unit": "kg/hd/d"}, {"measurement": "Gain/Feed, ×100", "setting": "[4]; [13]", "result": 14.32}, {"measurement": "Weight", "setting": "[4]; DDGS:Soy Hulls 10:0 diet (Treatment 2)", "result": "428.2^a kg"}, {"measurement": "Weight", "setting": "[4]; DDGS:Soy Hulls 30:15 diet (Treatment 4)", "result": "423.9^ab kg"}, {"measurement": "Weight", "setting": "[4]; main effect over both diets", "result": 426.1, "unit": "kg"}, {"measurement": "Average Daily Gain", "setting": "[4]; [14]", "result": 1.53, "unit": "kg/hd/d"}, {"measurement": "Dry Matter Intake", "setting": "[4]; [14]", "result": "8.78^c kg/hd/d"}, {"measurement": "Gain/Feed, ×100", "setting": "[4]; [14]", "result": "17.43^a"}, {"measurement": "Average Daily Gain", "setting": "[4]; [15]", "result": 1.66, "unit": "kg/hd/d"}, {"measurement": "Dry Matter Intake", "setting": "[4]; [15]", "result": "9.95^b kg/hd/d"}, {"measurement": "Gain/Feed, ×100", "setting": "[4]; [15]", "result": "16.78^a"}, {"measurement": "Average Daily Gain", "setting": "[4]; [16]", "result": 1.60, "unit": "kg/hd/d"}, {"measurement": "Dry Matter Intake", "setting": "[4]; [16]", "result": 9.36, "unit": "kg/hd/d"}, {"measurement": "Gain/Feed, ×100", "setting": "[4]; [16]", "result": 17.10}]}]}
